{"source": "patent US20110160280A1", "about": "“CANCER-RELATED GENES, CDCA5, EPHA7, STK31 AND WDHD1” (Oncotherapy Science, Inc., priority 2007, published 2011)", "key": {"NCI-H520 cells": {"test_system": "NCI-H520 cells", "experiment": "RNA interference assay (oligo based): colony formation and MTT assays", "format": "cell-based, human", "details": "7 days after transfection", "procedure": "(§1) Small interfering RNA (siRNA) duplexes (Dharmacon, Inc., Lafayette, Colo.) (600 pM) were transfected into lung-cancer cell lines LC319 and A549 for CDCA5; NCI-H520 and SBC-5 for EPHA7; LC319 for WDHD1, and esophageal cancer cell line TE9 for WDHD1 using 30 μl of Lipofectamine 2000 (Invitrogen, Carlsbad, Calif.) following the manufacturer's protocol. The transfected cells were cultured for 7 days, and the number of colonies was counted by Giemsa staining, and viability of cells was evaluated by 3-(4,5-dimethylthiazol-2-yl)-2,5-diphenyltetrazolium bromide (MTT) assay (cell counting kit-8 solution; Dojindo Laboratories, Kumanoto, Japan), at 7 days after transfection. To confirm suppression of gene expression, semiquantitative RT-PCR was carried out with synthesized primers described above."}, "SBC-5 cells": {"test_system": "SBC-5 cells", "experiment": "RNA interference assay (oligo based): colony formation and MTT assays", "format": "cell-based, human", "details": "7 days after transfection", "procedure": "as §1"}, "EPHA7 [1]": {"test_system": "EPHA7", "experiment": "RNA interference assay: EPHA7 expression by semiquantitative RT-PCR", "format": "cell-based, human", "details": "NCI-H520 and SBC-5 cells; versus control siRNAs (LUC, SCR)", "procedure": "(§2) Total RNA was extracted from cultured cells using Trizol reagent (Life Technologies, Inc. Gaithersburg, Md.) according to the manufacturer's protocol. Extracted RNAs were treated with DNase I (Nippon Gene, Tokyo, Japan) and reversely-transcribed using oligo (dT) primer and SuperScript II. The primer sets for amplification were as follows:\nas §1"}, "WDHD1": {"test_system": "WDHD1", "experiment": "RNA interference assay: WDHD1 knockdown by RT-PCR", "format": "cell-based, human", "details": "A549, LC319 and TE9 cells", "procedure": "as §2, §1"}, "CDCA5 [2]": {"test_system": "CDCA5", "experiment": "RNA interference assay: CDCA5 expression by semiquantitative RT-PCR", "format": "cell-based, human", "details": "A549 and LC319 cells; compared with control siRNA (si-LUC and si-CNT)", "procedure": "as §2, §1"}, "STK31": {"test_system": "STK31", "experiment": "RNA interference assay (vector based): STK31 knockdown by RT-PCR", "format": "cell-based, human", "details": "LC319 cells; controls si-EGFP and si-LUC", "procedure": "as §2\n(§3) The present inventors had established previously a vector-based RNAi system, psiH1BX3.0, which was designed to synthesize small interfering RNAs (siRNA) in mammalian cells (Suzuki C, et al., Cancer Res. 2003 Nov. 1; 63(21): 7038-41). Ten micrograms of siRNA expression vector were transfected using 30 μL Lipofectamine 2000 (Invitrogen) into lung cancer cell lines, LC319 and NCI-H2170. The transfected cells were cultured for 7 days in the presence of appropriate concentrations of geneticin (G418), and the number of colonies was counted by Giemsa staining, and viability of cells was evaluated by 3-(4,5-dimethylthiazol-2-yl)-2,5-diphenyltetrazolium bromide (MTT) assay (cell counting kit-8 solution; Dojindo, Kumamoto, Japan), at 7 days after the G418 treatment. To confirm suppression of STK31 protein expression, Western blotting was carried out with affinity-purified polyclonal antibody to STK31 according to the standard protocol. The target sequences of the synthetic oligonucleotides for RNAi were as follows: […]"}, "LC319 cells": {"test_system": "LC319 cells", "experiment": "RNA interference assay (vector based): colony formation and MTT assays", "format": "cell-based, human", "details": "P<0.001; 7 days with G418", "procedure": "as §3"}, "EPHA7 [3]": {"biological_target": "T1, EPHA7 (Homo sapiens, UniProt Q15375)", "T1 construct": "in vitro kinase assay using active recombinant proteins of cytoplasmic EPHA7, MET, EGFR; purchased Carnabioscience, Kobe, Japan", "T1 sequence (Q15375 577-998 limits assumed)": "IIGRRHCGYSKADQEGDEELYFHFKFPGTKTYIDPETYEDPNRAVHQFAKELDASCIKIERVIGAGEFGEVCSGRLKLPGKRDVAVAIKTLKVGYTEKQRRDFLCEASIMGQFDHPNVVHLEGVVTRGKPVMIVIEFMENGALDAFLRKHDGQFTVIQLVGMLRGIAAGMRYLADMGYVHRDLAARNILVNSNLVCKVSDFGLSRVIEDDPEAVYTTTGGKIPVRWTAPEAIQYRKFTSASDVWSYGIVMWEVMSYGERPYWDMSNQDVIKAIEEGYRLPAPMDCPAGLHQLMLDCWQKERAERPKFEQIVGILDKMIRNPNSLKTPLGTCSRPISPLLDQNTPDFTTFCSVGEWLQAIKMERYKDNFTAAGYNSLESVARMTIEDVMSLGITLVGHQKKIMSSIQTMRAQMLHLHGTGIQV", "experiment": "In vitro EPHA7 kinase assay: EPHA7 autophosphorylation", "format": "biochemical", "details": "at the minimum concentration inhibiting EGFR or MET autophosphorylation (assay used 1 mM AG1478, 12.5 μM SU11274)", "procedure": "Active recombinant EPHA7 (Carnabioscience, Kobe, Japan), EGFR (Millipore, Billerica, Mass.), MET (Millipore), EGFR inhibitor AG1478 (EMD), and MET inhibitor SU11274 were commercially purchased. We constructed plasmids expressing partial fragments of EGFR (#1: codons 692-891, #2: codons 889-1045, #3: codons 1046-1186) that contained GST-tagged epitopes at their N-terminals were prepared using pGEX vector (GE Healthcare Bio-sciences). The recombinant peptides were expressed in Escherichia coli, BL21 codon-plus strain (Stratagene, La Jolla, Calif.), and purified using TALON resin (BD Biosciences Clontech) according to the supplier's protocol. The purified proteins were extracted on an SDS-PAGE gel. […] ATP (GE Healthcare Bio-sciences). After incubation at 30 degrees C. for 30 minutes the reactions were terminated by addition of SDS sample buffer. After boiling, the protein samples were electrophoresed on 5% to 15% gradient gel (Bio-Rad), and then signals were visualized by Molecular imager FX (Bio-Rad). In EPHA7 kinase assay using MET as substrate, we adopted the same protocol as above mentioned EPHA7-EGFR kinase reaction, using 50 ng of MET and 12.5 μM of SU11274 (MET inhibitor; see above), instead of EGFR and AG1478. […] ATP, and detected phosphorylated proteins using anti-pan phospho-tyrosine antibody (Invitrogen)."}, "CDCA5 [4]": {"test_system": "CDCA5", "experiment": "CDC2-dependent phosphorylation of CDCA5 in mitosis, western blotting", "format": "cell-based", "procedure": "To determine whether endogenous CDCA5 phosphorylation in mitosis was CDC2-dependent, we further treated the lung cancer cells at 5 hours after release from G1/S phase with nocodazole alone or both nocodazole and CDC2 inhibitor CGP74514A, and measured the status of CDCA5 phosphorylation by western blotting. Mitotic cells treated with nocodazole alone gradually expressed phosphorylated CDCA5 (shifted bands) (FIG. 19B)."}, "CDCA5 [5]": {"test_system": "CDCA5", "procedure": "(§4) Cultured A549 and LC319 lung cancer cells as well as cervical squamous cell carcinoma Hela cells were synchronized in G1/S phase by 2 μg/ml aphidilcoline for 16 hours incubation. For mitosis synchronization, the cells were released at 0 hour from G1/S phase. Nocodazole was added at 5 hours to prevent mitotic exit. At the point, CDC2 inhibitors or PBS were added to the cell cultures. For the EGF stimulation assay, Hela cells were cultured in FBS free medium for 20 hours. Then, the cells were stimulated by […] EGF for 30 min with or without 10 μM MEK inhibitor U0126 (Promega)"}, "ERK": {"test_system": "ERK", "details": "serum-starved Hela cells, EGF stimulation with 10 μM U0126", "procedure": "as §4"}, "NSCLC": {"test_system": "NSCLC", "details": "cited from earlier work"}}}
{"molecule": "5′-AAAAGAGAUGUUGCAGUA-3′ [si-EPHA7-#1]", "values": [{"measurement": "number of colonies and viable cells (MTT), NCI-H520 cells, siRNA against EPHA7", "setting": "NCI-H520 cells", "result": "slight decreases in colony numbers and cell viability"}, {"measurement": "number of colonies and viable cells (MTT), SBC-5 cells, siRNA against EPHA7", "setting": "SBC-5 cells", "result": "slight decreases in colony numbers and cell viability"}, {"measurement": "EPHA7 mRNA levels / EPHA7 expression", "setting": "EPHA7 [1]", "result": "weak reduction of EPHA7 expression"}]}
{"molecule": "5′-GAUCAGACAUGUGCUAUUA UU-3′ (GAUCAGACAUGUGCUAUUAUU; listed as RNA, chemistry not given here) [si-WDHD1-#1]", "values": [{"measurement": "WDHD1 knockdown effect (RT-PCR)", "setting": "WDHD1", "result": "knockdown effect was confirmed"}]}
{"molecule": "5′-GCAGUUUGAUCUCCUGGUUU-3′ [si-CDCA5-#1]", "values": [{"measurement": "expression of CDCA5", "setting": "CDCA5 [2]", "result": "significantly suppressed expression of CDCA5"}]}
{"molecule": "5′-GCCAGAGACUUGGAAAUGU UU-3′ [si-CDCA5-#2]", "values": [{"measurement": "expression of CDCA5", "setting": "CDCA5 [2]", "result": "significantly suppressed expression of CDCA5"}]}
{"molecule": "5′-GGAGATAGCTCTGGTTGAT-3′ [si-STK31-#1]", "values": [{"measurement": "STK31 knockdown effect (RT-PCR)", "setting": "STK31", "result": "knockdown effect was confirmed"}, {"measurement": "number of LC319 cells (MTT and colony-formation assays), siRNA against STK31", "setting": "LC319 cells", "result": "drastic reduction in the number of cells"}]}
{"molecule": "5′-GGGCTATTCTGTGGATGTT-3′ [si-STK31-#2]", "values": [{"measurement": "STK31 knockdown effect (RT-PCR)", "setting": "STK31", "result": "knockdown effect was confirmed"}, {"measurement": "number of LC319 cells (MTT and colony-formation assays), siRNA against STK31", "setting": "LC319 cells", "result": "drastic reduction in the number of cells"}]}
{"molecule": "5′-UAGCAAAGCUGACCAAGAA-3′ [si-EPHA7-#2]", "values": [{"measurement": "number of colonies and viable cells (MTT), NCI-H520 cells, siRNA against EPHA7", "setting": "NCI-H520 cells", "result": "significant decreases in the number of colonies formed and in the numbers of viable cells"}, {"measurement": "number of colonies and viable cells (MTT), SBC-5 cells, siRNA against EPHA7", "setting": "SBC-5 cells", "result": "significant decreases in the number of colonies formed and in the numbers of viable cells"}, {"measurement": "EPHA7 mRNA levels / EPHA7 expression", "setting": "EPHA7 [1]", "result": "significantly decreased"}]}
{"molecule": "COc1cc2ncnc(Nc3cccc(Cl)c3)c2cc1OC", "note": "[AG1478]", "values": [{"measurement": "EPHA7 autophosphorylation", "setting": "EPHA7 [3]", "result": "did not inhibit EPHA7 autophosphorylation"}]}
{"molecule": "CCn1cnc2c(Nc3cccc(Cl)c3)nc(N[C@@H]3CCCC[C@@H]3N)nc21", "note": "[CGP74514A]", "values": [{"measurement": "CDCA5 phosphorylation in mitosis (upper shifted bands)", "setting": "CDCA5 [4]; added with nocodazole 5 hours after release from G1/S phase", "result": "showed no upper shifted bands indicating that CDCA5 phosphorylation in mitosis was significantly inhibited"}, {"measurement": "stability of CDCA5 protein", "setting": "CDCA5 [4]; cells treated with CDC2 inhibitor (FIG. 19C)", "result": "seems to be unstable"}]}
{"molecule": "Cc1[nH]c(/C=C2\\C(=O)Nc3ccc(S(=O)(=O)N(C)c4cccc(Cl)c4)cc32)c(C)c1C(=O)N1CCN(C)CC1", "note": "[SU11274]", "values": [{"measurement": "EPHA7 autophosphorylation", "setting": "EPHA7 [3]", "result": "did not inhibit EPHA7 autophosphorylation"}]}
{"molecule": "N#CC(=C(/N)Sc1ccccc1N)/C(C#N)=C(\\N)Sc1ccccc1N", "note": "[U0126]", "values": [{"measurement": "signal of spot no. 2 of myc-tagged CDCA5, 2D-western-blotting", "setting": "CDCA5 [5]; Hela cells, EGF, U0126 treatment", "result": "reduced"}, {"measurement": "shifted spots with more acidic pI (spots no. 3 and 4) of myc-tagged CDCA5, 2D-western-blotting", "setting": "CDCA5 [5]; Hela cells, EGF, pre-incubation with U0126", "result": "significantly reduced"}, {"measurement": "upper shift of CDCA5 band (endogenous CDCA5 phosphorylation)", "setting": "CDCA5 [5]; serum-starved Hela cells, EGF stimulation with 10 μM U0126", "result": "completely inhibited the upper shift of CDCA5 band"}, {"measurement": "levels of ERK phosphorylation", "setting": "ERK", "result": "reduced the levels of ERK phosphorylation"}]}
{"molecule": "O=C1Cc2c([nH]c3ccc([N+](=O)[O-])cc23)-c2ccccc2N1", "note": "[alsterpaullone]", "values": [{"measurement": "CDC2-inhibitory activity relative to CGP74514A", "setting": "CDCA5 [4]", "result": "lower compared with the other CDC2 inhibitor CGP74514A"}, {"measurement": "CDCA5 phosphorylation in mitosis", "setting": "CDCA5 [4]; 4 μM, with nocodazole 5 hours after release from G1/S phase", "result": "could strictly inhibit CDCA5 phosphorylation"}]}
{"molecule": "C#Cc1cccc(Nc2ncnc3cc(OCCOC)c(OCCOC)cc23)c1", "note": "[erlotinib]", "values": [{"measurement": "median survival", "setting": "NSCLC; NSCLC patients, placebo 4.7 months (Shepherd et al. 2005)", "result": 6.7, "unit": "months"}]}
{"molecule": "COc1cc2ncnc(Nc3ccc(F)c(Cl)c3)c2cc1OCCCN1CCOCC1", "note": "[gefitinib]", "values": [{"measurement": "clinical outcome", "setting": "NSCLC; NSCLC (Giaccone 2004; Baselga 2004)", "result": "superior response rate and symptom control"}]}
